Source: US10603322B2, “Therapeutic targeting of casein kinase 1δ in breast cancer” (The Scripps Research Institute, priority 2015, dated 2020)

Columns and labels:
[1] = system: β-catenin/TCF transcriptional activity; experiment: TCF-dependent luciferase reporter assay in MDA-MB-231 cells; format: cell-based, human; conditions: increasing doses, 6 hr
Procedure: MDA-MB-231 or HEK293 cells stably expressing the TCF luciferase reporter 7TFP (39) were transfected with β-catenin-S33Y or empty vector (pcDNA). After 18 hr cells were seeded onto a 96-well plate at a density of 6000 cells/well. After 24 hr cells were treated with SR-3029 or vehicle and incubated for 6 hr prior to addition of 1 μg/ml recombinant human Wnt3a (R&D Systems) or PBS. After 3 hr, reporter assays were performed using BriteLite Plus (Perkin Elmer), which was added in equal volume directly to the media and luminescence read using a Spectramax plate reader (Molecular Devices).

MDA-MB-231-luc tumors = experiment: Orthotopic MDA-MB-231-luc tumor model, treatment from day 7; format: in vivo, nude mice; conditions: 20 mg/kg daily i.p.
Source text: (§1) All animal studies are approved by the Scripps Florida IACUC. Stable pools of MDA-MB-231-Luc, MDA-MB-231, MDA-MB-468, SKBR3 or BT474 cells were established by injection of 2×10^6 cancer cells into the mammary fat pads of 6-week old female athymic nude mice (Charles River Laboratories). Establishment of BCM-4013 patient derived xenografts were as described (19). Briefly, fresh xenograft tumor fragments (˜1 mm^3) were transplanted into the cleared mammary fat pad of recipient SCID/Bg mice (Charles River Laboratories). Mice were treated with SR-3029 or vehicle (10:10:80, DMSO:Tween-80:Water) at 20 mg/kg daily by i.p. injection. Tumor volumes were measured as the indicated intervals using calipers or by luminescence imaging using the IVIS 100 imager (exposure time, 1-60 sec; binning 8; field of view 15-cm; f/stop 1; open filter) following subcutaneous injection of luciferin (15 mg/ml, Goldbio Technology). Average radiance (p/s/cm^2/sr) was determined from tumor region-of-interest (ROI) using Living-Image (Xenogen) analysis software.

[2] = Tolerability of long-term daily dosing; format: in vivo, mice
Source text: as §1
For apoptotic detection in cryosections tumors and small intestines were fixed in 10% buffered formalin for 2 hr, incubated in 20% sucrose overnight and embedded in OCT. Frozen sections ([…]) were mounted and stained using the ApopTag Red In Situ Kit according to the manufacturer instructions (CHEMICON). For H&E staining, tissues were fixed in 10% buffered formalin for 48 hr, transferred to 70% ethanol/PBS and embedded in paraffin. Staining was performed on […] sections following deparaffinization (AML Laboratories).

MDA-MB-231 cells = experiment: Clonogenic growth assay; format: cell-based, human
Procedure: (§2) Cell proliferation was measured 72 hr after SR-3029 or vehicle treatment using Cell-Titer Glo (Promega) according to the manufacturers' instructions. EC50 values were determined using non-linear regression and a four-parameter algorithm (GraphPad Prism5). For clonogenic assays, cells were plated in 6-well dishes in triplicate at a density of 500-1000 cells per well. After overnight incubation, SR-3029 or vehicle (DMSO) was added to media for 72 hr and cells were allowed to grow out for 7-10 days, during which media was changed every 2-3 days in the absence of compound. Colonies were fixed in 4% paraformaldehyde/PBS and stained with 0.5% methylene blue in 50% ethanol for 1 hr at room temperature and de-stained with water. Colonies with greater than 50 cells were counted using a low magnification light microscope.

MCF7 breast cancer cells = experiment: Clonogenic growth assay; format: cell-based, human
Procedure: as §2

[3] = system: activated β-catenin signaling; experiment: Wnt/β-catenin markers in MDA-MB-231 tumors of treated mice; format: in vivo; conditions: 20 mg/kg once daily i.p.
Source text: All animal studies are approved by the Scripps Florida IACUC. Stable pools of MDA-MB-231-Luc, MDA-MB-231, MDA-MB-468, SKBR3 or BT474 cells were established by injection of 2×10^6 cancer cells into the mammary fat pads of 6-week old female athymic nude mice (Charles River Laboratories). Establishment of BCM-4013 patient derived xenografts were as described (19). Briefly, fresh xenograft tumor fragments (˜1 mm^3) were transplanted into the cleared mammary fat pad of recipient SCID/Bg mice (Charles River Laboratories). Mice were treated with SR-3029 or vehicle (10:10:80, DMSO:Tween-80:Water) at 20 mg/kg daily by i.p. injection. Tumor volumes were measured as the indicated intervals using calipers or by luminescence imaging using the IVIS 100 imager (exposure time, 1-60 sec; binning 8; field of view 15-cm; f/stop 1; open filter) following subcutaneous injection of luciferin (15 mg/ml, Goldbio Technology). Average radiance (p/s/cm^2/sr) was determined from tumor region-of-interest (ROI) using Living-Image (Xenogen) analysis software. SDS-PAGE gel electrophoresis was performed using NuPAGE 4-12% Bis-Tris gels (Invitrogen) and transferred to PVDF membranes by semi-dry transfer using trans-blot transfer medium (Biorad). Membranes were blocked in Odyssey blocking buffer (LI-COR Biosciences) and incubated overnight at 4° C. with primary antibodies. After repeated washes with TBST (20 mM Tris, pH 7.6, 140 mM NaCl and 0.1% Tween-20) blots were incubated with the appropriate IRDye-conjugated secondary antibody (LI-COR Biosciences) and imaged using the LI-COR Odyssey. Bands were quantified using the Odyssey software (LI-COR Biosciences). The following antibodies were used in this study: CK1δ and Histone H4 (Abcam), CK1ε, c-Myc (9E10), Cyclin-D1 and β-actin (Santa Cruz), β-catenin (Cell Signaling), GAPDH (Millipore) and CD44 (R&D Systems). Total RNA was obtained using the RNeasy Plus Mini Kit (Qiagen) and 1-2 μg of RNA was reverse transcribed with Superscript III First Strand Synthesis System (Life Technologies). Quantitative PCR was performed using the Power SYBR Green PCR Master Mix (Life Technologies) and the ABI7900HT Fast Real-Time PCR System. Intron-spanning gene-specific primer pairs were designed using the Primer3 algorithm and relative expression values for each gene of interest obtained by normalizing to GAPDH mRNA expression using the ^ΔΔCt method.

FLT3 = FLT3 (Homo sapiens, UniProt P36888); conditions: cited from earlier work
[4] = system: breast cancer cell types overexpressing CK1δ; experiment: Cell proliferation assay (Cell-Titer Glo, 72 hr); format: cell-based; conditions: Homo sapiens
Procedure: as §2

Sequence of FLT3 (P36888 564-993 limits assumed): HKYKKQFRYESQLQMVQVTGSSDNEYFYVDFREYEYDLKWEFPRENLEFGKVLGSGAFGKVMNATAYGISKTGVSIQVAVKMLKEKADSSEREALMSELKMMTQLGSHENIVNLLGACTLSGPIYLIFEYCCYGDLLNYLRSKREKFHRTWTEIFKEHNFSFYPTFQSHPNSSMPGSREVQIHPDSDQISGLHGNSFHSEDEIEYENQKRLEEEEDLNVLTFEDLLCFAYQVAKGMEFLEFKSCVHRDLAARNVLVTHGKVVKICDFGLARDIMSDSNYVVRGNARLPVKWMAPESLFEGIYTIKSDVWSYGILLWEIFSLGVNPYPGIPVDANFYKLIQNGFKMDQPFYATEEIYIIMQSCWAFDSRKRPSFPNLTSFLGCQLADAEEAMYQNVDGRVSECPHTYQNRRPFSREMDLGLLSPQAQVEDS

## Fc1cccc(-n2cnc3c(NCc4nc5ccc(F)c(F)c5[nH]4)nc(N4CCOCC4)nc32)c1 [SR-3029]
[1]
  endogenous β-catenin/TCF transcriptional activity: markedly reduced
MDA-MB-231-luc tumors; single agent, start seven days after engraftment
  tumor growth: markedly impaired tumor growth
MDA-MB-231-luc tumors; n=8 per cohort
  recipients that developed tumors: 2
[2]; long-term daily dosing (48 days), 20 mg/kg i.p.
  tolerability: body weight, blood chemistry and tissue integrity by histochemistry: well tolerated, with no overt toxicity
[2]; long-term treatment
  small intestine apoptosis, TUNEL staining: failed to detect evidence of apoptosis
  small intestine integrity, H&E staining: no gross morphological defects
MDA-MB-231 cells
  clonogenic growth and survival: completely blocked
MDA-MB-231 cells; CK1δ overexpressing vs GFP-expressing controls
  clonogenic growth inhibition with forced overexpression of CK1δ: sufficient to rescue the growth inhibitory effects
MCF7 breast cancer cells
  colony forming capacity: no effect
MCF7 breast cancer cells; short-term and long-term growth assays, CK1δ vs GFP
  sensitivity of MCF7 cells with forced overexpression of CK1δ: sensitizes them to SR-3029
[3]; 7 days
  CCND1, WNT3, WNT9A and RARA mRNA transcripts in tumors: decreases
  SFRP1 transcripts in tumors: marked increase
  expression of nuclear β-catenin in tumors: markedly reduced
[3]; day 7
  CCND1 protein in tumors: down-regulation
FLT3
  FLT3 off-target activity: common (and weak) off-target
[4]
  EC50: 0.005 to 0.07 µM
